Laboratory results from patent US20250352544A1, “TREATMENT OF MUSCLE ATROPHY USING GSK-3 INHIBITORS” (Technion Research & Development Foundation Limited, priority 2024, published 2025).
“Also recorded” adds a separate entry of the source. Non-standard residues stand in square brackets, D forms with d. *: point of attachment. Myristoyl = CCCCCCCCCCCCCC(=O)*; pS = N[C@@H](COP(=O)(O)O)C(=O)O

Columns and labels:
[1] = tested on: fasting (atrophy-induced) mice, Tibialis Anterior (TA) muscle; experiment: Fasting-induced muscle atrophy in mice treated with GSK-3 inhibitors; format: in vivo; conditions: for TA muscle weight (muscle atrophy): i.p. 0.5 mg CHIR98014 or 0.3 mg L803mts per mouse on day 1 and day 2 of fasting, vs fed and fasting vehicle controls (FIG. 3)
From the text: All animal experiments were consistent with Israel Council on Animal Experiments guidelines and the Institutional Regulations of Animal Care and Use. Specialized personnel provided mice care in the institutional animal facility. In fasting (2 d) experiments, food was removed from cages on the fifth day after electroporation.
Mice were divided into two groups: those subjected to fasting to induce muscle atrophy, and those that were fed and used as fed control. Mice of the fasting group were injected intraperitoneally with either CHIR98014 or L803mts to examine their effect on muscle wasting. Control groups (Fed, fasting) were injected with vehicle (3% DMSO in saline). Each mouse (27-30 grams body weight) was injected with 0.3 mg L803mts or 0.5 mg CHIR98014, twice: on the first and then on the second day of fasting. Whole Tibilis anterior (TA) muscles were then collected and the weight loss in these samples over 2 days was measured.
Tideglusib (4.35 mg/ml) was mixed with 26% PEG400 (v/v), 15% Cremophor EL (v/v), and 59% ddH2O (v/v), to a total volume of 2.3 ml. Each mouse received 200 microliter (μL) (0.87 mg Tideglusib) of the solution on the first day of fasting, and 150 μL (0.65 mg Tideglusib) on the second day.
Then, the efficacy of CHIR99021, another exemplary ATP-competitive GSK3β inhibitor, was evaluated. To this, fasting (atrophy-induced) mice were injected intraperitoneally with 16 mg/kg CHIR99021 (200 μL per mouse) on day 1 and on day 2 of fasting. At the end of the experiment, mice were sacrificed, and their tibialis anterior (TA) muscles were dissected and weighed, in comparison with fed mice and untreated fasting (atrophy-induced) mice.

GSK-3 = conditions: background statement; cited from earlier work

Row | Molecule | effect on muscle atrophy (body weight and TA muscle to body weight ratio) ([1]; 2-day fasting mice, Tideglusib via gavage, 0.87 mg on day 1 and 0.65 mg on day 2 (20-30 mg/kg) (FIGS. 4A-B)) | TA muscle weight (muscle loss) ([1]; fasting mice, CHIR99021 16 mg/kg i.p. on day 1 and day 2 of fasting, data not shown, 16 mg/kg) | GSK-3 inhibition, potency and selectivity (GSK-3) | TA muscle weight (muscle atrophy) ([1]; 2-day fasting mice)
1 | O=c1sn(-c2cccc3ccccc23)c(=O)n1Cc1ccccc1 [Tideglusib] | minimal effect on preventing muscle atrophy; also recorded: minor effect in treating muscle atrophy |  |  | 
2 | Cc1c[nH]c(-c2cnc(NCCNc3ccc(C#N)cn3)nc2-c2ccc(Cl)cc2Cl)n1 [CHIR99021] |  | did not mitigate this muscle loss; also recorded: inferior activity | highly potent and selective inhibitors of GSK-3 | 
3 | Myr-Gly-Lys-Glu-Ala-Pro-Pro-Ala-Pro-Pro-Gln-{Ser(p)}-Pro-NH2 (Myristoyl-GKEAPPAPPQ[pS]P-NH2; SMILES CCCCCCCCCCCCCC(=O)NCC(=O)N[C@@H](CCCCN)C(=O)N[C@@H](CCC(=O)O)C(=O)N[C@@H](C)C(=O)N1CCC[C@H]1C(=O)N1CCC[C@H]1C(=O)N[C@@H](C)C(=O)N1CCC[C@H]1C(=O)N1CCC[C@H]1C(=O)N[C@@H](CCC(N)=O)C(=O)N[C@@H](COP(=O)(O)O)C(=O)N1CCC[C@H]1C(N)=O) [L803-mts] |  |  |  | attenuation in muscle weight; also recorded: inferior activity to that of CHIR98014
4 | Nc1nc(NCCNc2ncc(-n3ccnc3)c(-c3ccc(Cl)cc3Cl)n2)ccc1[N+](=O)[O-] [CHIR98014] |  |  | highly potent and selective inhibitors of GSK-3 | no reduction in muscle weight compared to control; also recorded: completely prevented the reduction in muscle mass
